These results are taken from patent publication US12133924B2, “Compositions and methods for organ specific delivery of nucleic acids” (The Board of Regents of The University of Texas System, priority 2018, dated 2024).

Data set [1] deals with C57BL/6 mice. Put plainly: In vivo Luc mRNA delivery after IV injection, ex vivo organ luminescence. Set-up: species or system mouse. The following applies: 6 h; for organ of luciferase expression (tissue specific mRNA delivery): IV, 0.1 mg/kg Luc mRNA. How it is done:
Next, to test the ability of these mDLNPs to deliver mRNA in vivo, mice were injected with a dose of 0.1 mg/kg of Luc mRNA in each of the formulations. […] Assuming that luciferase expression was detected only in liver, spleen and lung after IV injection, the percentage of luciferase expressed in each organ can be calculated (FIG. 1C). […] However, the greater the DOTAP percentage, the more luminescence is seen in lung tissues, with close to 100% of luminescence seen in the lung when DOTAP percentage is greater than 80% (FIG. 1C).
C57BL/6 mice with weight of 18-20 g, were IV injected by various Luc mRNA formulations at a dose of 0.1 or 0.05 mg/kg. n=2-4 per group. After 6 h, mice were intraperitoneal (IP) injected with D-Luciferin (150 mg/kg) and imaged by an IVIS Lumina system (Perkin Elmer). For biodistribution, C57BL/6 mice were IV injected with Cy5-Luc mRNA formulations at a dose of 0.5 mg/kg. Ex vivo imaging (Cy5 channel) was performed 6 h post injection.

For data set [2], the system named is C57BL/6 mice. Put plainly: Biodistribution of Cy5-Luc mRNA formulations. The following applies: IV, 0.5 mg/kg, 6 h. Type of data set: in vivo, mouse. How it is done:
To test the organ biodistributions of specific DOTAP formulations in greater depth, PBS or liver targeting NPs (mDLNP), spleen targeting NPs (DOTAP10) and lung targeting NPs (DOTAP50) were injected into C57BL/6 mice (n=2) at a dose of 0.5 mg/kg Cy5-Luc mRNA (dye labeled mRNA to track RNA LNPs). 6 h post injection, major organs were collected and imaged (FIG. 3A). The organ distribution of formulations was changed by the amount of DOTAP, and accumulation in liver gradually moved to lung with increasing DOTAP percentages, but regardless of DOTAP percentage, there are still NPs present in the liver (FIG. 7, FIG. 8). […] Further, considering the similar size distribution and EE between these formulations, zeta-potential and pKa may play roles in tissue targeting mRNA expression.
Mechanistic experiments were conducted to explore how and why inclusion of extra lipids in defined categories controls mRNA delivery to different organs. It is logical that LNPs that deliver to cells within the lungs should biodistribute (accumulate) in the lungs. Cy5-labeled mRNA was delivered to track the in vivo distribution of 5A2-SC8 LNPs containing SORT lipids with lung (DOTAP quaternary amino lipid), spleen (18PA anionic lipid and DSPC zwitterionic lipid) and liver (DODAP ionizable tertiary amino lipid) tropism (FIGS. 27A & 28). […]

A further data set concerns HeLa-Luc cells. Put plainly: Cellular uptake and uptake mechanism in HeLa-Luc cells. Type of data set: cell-based. Conditions: pre-incubation 1 h, then 24 nM sgLuc, 30 min. An excerpt: First, DOTNPs containing Cas9/sgRNA RNPs that were tagged by a green fluorescent EGFP were tracked by confocal microscopy (FIG. 12A). […] Green: EGFP fused Cas9 protein; Blue: nuclei stained with Hoechst 33342. Red arrows indicated the process of DOTNP10 entering into nucleus. (FIG. 12B)
To evaluate this strategy, 5A2-SC8 was selected as the ionizable cationic lipid because 5A2-SC8 LNPs safely deliver short siRNAs/miRNAs and long mRNAs to mice with compromised liver function, including MYC-driven liver cancer (Zhou et al., 2016; Zhang et al., 2018a; Zhang et al., 2018b) or genetic knockout of fumarylacetoacetate hydrolase (FAH) (Cheng et al., 2018). Introduction of a permanently cationic lipid (e.g. DOTAP) into traditional 4-component 5A2-SC8 LNP formulations indeed allowed controlled self-assembly to occur by mixing an ethanol solution of lipids with a PBS solution of RNPs (1/3, v/v). […] Initially using sgRNA targeting reporter Luciferase (sgLuc), the size of LNPs with 10 mole % DOTAP incorporation (5A2-DOT-10: 5A2-SC8/DOPE/Cho1/DMG-PEG/DOTAP=15/15/30/3/7 (mol/mol)) was observed, prepared using PBS buffer were slightly larger than nanoparticles without RNP loading. […]
To examine the uptake mechanism, assays of specific inhibition on endocytosis pathways were evaluated using Hela-Luc cells. […] The cells were then collected and analyzed by flow cytometry. […]

The test system of the next data set is Td-Tomato mice. Put plainly: sgRNA screening in Td-Tomato mice. It counts as in vivo, mouse. Conditions: mDLNP, Cas9/sgRNA 4/1 wt/wt, total 3 mg/kg IV, day 7. The source says: These sgRNAs are sgTom1, sgTom2 and sgLoxP. […] Considering the weak PAM of sgLoxP (NAG), sgTom1 was finally chosen for further experiments.

As for `CCCCCCCCCCCCCC(=O)OC[C@H](COP(=O)(O)O)OC(=O)CCCCCCCCCCCCC` [14PA, 1,2-dimyristoyl-sn-glycero-3-phosphate], in the data set with C57BL/6 mice [1], the “organ of luciferase expression (tissue specific mRNA delivery)” value (“organ of luciferase expression” for short) is “exclusively spleen”.
On the same count and under the same terms, the entry for `CCCCCCCC/C=C\CCCCCCCC(=O)OCC(O)COP(=O)(O)OCC(COC(=O)CCCCCCC/C=C\CCCCCCCC)OC(=O)CCCCCCC/C=C\CCCCCCCC` (stereo not shown) [18BMP, sn-(3-oleoyl-2-hydroxy)-glycerol-1-phospho-sn-3′-(1′,2′-dioleoyl)-glycerol] is “exclusively spleen”.
On to `CCCCCCCC/C=C\CCCCCCCC(=O)OC[C@H](COP(=O)(O)O)OC(=O)CCCCCCC/C=C\CCCCCCCC` [18PA, 1,2-dioleoyl-sn-glycero-3-phosphate], for which the “organ of luciferase expression” value in the data set with C57BL/6 mice [1] was “exclusively spleen”. Besides, in the data set with C57BL/6 mice [2], the “organ distribution of Cy5-labeled mRNA” value is reported as “increased uptake into the spleen”.
Take `CCCCCCCCCCC(O)CN(CCN1CCN(CCN(CC(O)CCCCCCCCCC)CC(O)CCCCCCCCCC)CC1)CCN(CC(O)CCCCCCCCCC)CC(O)CCCCCCCCCC` (stereo not shown) [C12-200]: the “delivery efficacy compared with original mDLNP formulation” value in the data set on C57BL/6 mice [1] (0.1 mg/kg, n=2) was “much better delivery efficacy than original mDLNP formulation”. For the same compound, the “organ of luciferase expression” value in the data set on C57BL/6 mice [1] is listed as “enhanced liver delivery without any luciferase expression in the lungs”.
Take `CCCCCCCCCCCCCCCCCC[N+](C)(C)CCCCCCCCCCCCCCCCCC` [DDAB, dimethyldioctadecylammonium]: the “organ of luciferase signal at 40% SORT lipid” value in the data set with C57BL/6 mice [1] (0.1 mg/kg) is reported as “high luciferase signal was observed exclusively in the lungs”. The “organ of luciferase expression” value in the data set with C57BL/6 mice [1] is recorded as “liver to spleen to lung based on SORT lipid percentage”.
With `CCCCCCCC/C=C\CCCCCCCC(=O)OCC(C[N+](C)(C)CCOP(=O)([O-])OCC)OC(=O)CCCCCCC/C=C\CCCCCCCC` (stereo not shown) [DOCPe, 2-((2,3-bis(oleoyloxy)propyl)dimethylammonio)ethyl ethyl phosphate], in the data set on C57BL/6 mice [1], the “organ of luciferase expression” value is on record as “move from liver to spleen”.
With `CCCCCCCC/C=C\CCCCCCCC(=O)OCC(CN(C)C)OC(=O)CCCCCCC/C=C\CCCCCCCC` (stereo not shown) [DODAP, 1,2-dioleoyl-3-dimethylammonium-propane], the “mRNA delivery when added to C2 LNPs (no ionizable cationic lipid)” value in the data set on C57BL/6 mice [1] (0.1 mg/kg, n=2) is listed as “failed to enable significant mRNA delivery”. The “organ of luciferase expression” value in the data set on C57BL/6 mice [1] was “enhanced liver delivery without any luciferase expression in the lungs”.
As to `CCCCCCCC/C=C\CCCCCCCC(=O)OCC(C[N+](C)(C)C)OC(=O)CCCCCCC/C=C\CCCCCCCC` (stereo not shown) [DOTAP, 1,2-dioleoyl-3-trimethylammonium-propane], the “mRNA delivery when added to C2 LNPs (no ionizable cationic lipid)” value in the data set on C57BL/6 mice [1] (0.1 mg/kg, n=2) is recorded as “failed to enable significant mRNA delivery”. Besides, in the data set with C57BL/6 mice [1], the “organ of luciferase expression” value was “liver to spleen to lung based on SORT lipid percentage”. The “organ distribution of Cy5-labeled mRNA” value in the data set with C57BL/6 mice [2] was “progressive increase in lung accumulation”.
Consider `CCCCCCCCCCCCCCCCCC(=O)OC[C@H](COP(=O)([O-])OCC[N+](C)(C)C)OC(=O)CCCCCCCCCCCCCCCCC` [DSPC, 1,2-distearoyl-sn-glycero-3-phosphocholine], for which the “organ of luciferase expression” value in the data set on C57BL/6 mice [1] is given as “move from liver to spleen”.
Regarding `CCCCCCCCCCCCCC(=O)OCC(COP(=O)(OCC)OCC[N+](C)(C)C)OC(=O)CCCCCCCCCCCCC.Cl` (stereo not shown) [EPC, 1,2-dimyristoyl-sn-glycero-3-ethylphosphocholine], the “organ of luciferase signal at 40% SORT lipid” value in the data set with C57BL/6 mice [1] (0.1 mg/kg) was “high luciferase signal was observed exclusively in the lungs”. Further, the “organ of luciferase expression” value with C57BL/6 mice [1] is “liver to spleen to lung based on SORT lipid percentage”.
With Methyl-o-cyclodextrin [MβCD], the “effect of endocytosis inhibitor on uptake of 5A2-DOT-10 LNPs” value in the data set with HeLa-Luc cells was “significantly inhibited”.
In the case of “sgTom1: sgRNA, AAGTAAAACCTCTACAAATG (SEQ ID NO: 1) (chemically modified sgRNA from Synthego, pattern not given here)”, the “induction of TdTomato in liver” value in the data set on Td-Tomato mice is “more successful at inducing TdTomato than sgTom2”.
